Reference: patent publication US20020048572A1, “Treatment of hypertriglyceridemia and other conditions using LXR modulators” (priority 2000, published 2002)
“Also recorded” adds a separate entry of the source.

How the values were obtained:
[1] = system: HepG2 cells; assay: Northern blot analysis of HepG2 cells treated with LXRα ligand, with or without cyclohexamide; assay type: cell-based
Description: HepG2 cells were treated with 24,25-epoxycholesterol in the presence or absence of 50 μg/ml cyclohexamide in DMEM F12 media supplemented with 10% lipid-free serum for 18 hours.
Total RNA was then prepared using the TRIzol® method (Chomczynski and Saachi (1987) Anal. Biochem. 162:156). Electrophoresis and Northern blot analysis were performed using the NorthernMax™ system (Ambion). Ribonucleotide probes were used to identify the RNA transcripts.

[2] = system: HepG2, 293, and CaCO2 cells; assay: Northern blot analysis of three cell lines treated with oxysterols in presence of cyclohexamide; assay type: cell-based; details: 30 μM, 50 μg/ml cyclohexamide, 18 hours
Description: To ascertain whether or not the 24,25-epoxycholesterol-mediated activation of SREBP-1 expression is cell-specific, three cell lines were tested. HepG2, 293, and CaCO2 cells were treated with either DMSO, 30 μM of 24,25-epoxycholesterol, 30 μM of 22(R)-hydroxycholesterol, or 30 μM 22(S)-hydroxycholesterol in the presence of 50 μg/ml cyclohexamide in DMEM F12 media supplemented with 10% lipid-free serum for 18 hours.
Total RNA was then prepared using the Trizol method. Electrophoresis and Northern blot analysis were performed using the NorthernMax™ system (Ambion). Ribonucleotide probes were used to identify RNA transcripts.

[3] = target: T1, LXRα (Homo sapiens, UniProt Q13133); details: SPA
T1 sequence (Q13133 1-447): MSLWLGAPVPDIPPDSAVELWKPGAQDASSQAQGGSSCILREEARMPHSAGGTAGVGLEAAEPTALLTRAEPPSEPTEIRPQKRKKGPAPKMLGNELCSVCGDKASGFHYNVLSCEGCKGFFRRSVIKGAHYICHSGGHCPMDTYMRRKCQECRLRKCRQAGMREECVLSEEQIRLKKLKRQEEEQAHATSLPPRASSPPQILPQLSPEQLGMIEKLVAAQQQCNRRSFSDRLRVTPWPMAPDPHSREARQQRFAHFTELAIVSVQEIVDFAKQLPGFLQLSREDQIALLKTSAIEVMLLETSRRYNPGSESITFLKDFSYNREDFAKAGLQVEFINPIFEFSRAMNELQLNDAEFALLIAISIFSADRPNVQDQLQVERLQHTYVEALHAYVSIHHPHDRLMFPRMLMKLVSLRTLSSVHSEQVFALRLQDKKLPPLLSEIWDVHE

[4] = target: T2, LXRα ligand-binding domain (Homo sapiens, UniProt Q13133); assay: biochemical
T2 sequence (Q13133 209-447 limits assumed): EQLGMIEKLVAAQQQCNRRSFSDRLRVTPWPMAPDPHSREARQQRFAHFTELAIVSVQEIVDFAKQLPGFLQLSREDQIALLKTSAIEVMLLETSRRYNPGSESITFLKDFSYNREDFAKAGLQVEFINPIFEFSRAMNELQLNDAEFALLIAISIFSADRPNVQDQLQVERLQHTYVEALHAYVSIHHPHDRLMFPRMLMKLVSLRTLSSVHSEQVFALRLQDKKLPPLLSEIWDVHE

[5] = system: HepG2 cells; assay: Northern blot analysis of T0314407-dosed HepG2 cells with and without cycloheximide; assay type: cell-based; details: HepG2, with 50 μg/mL cycloheximide, 18 h
Description: FIG. 9. Northern blot analysis. Total RNA was isolated from the tissues indicated from mice (A,B,C) and hamsters (D). The numerical data shown with each figure represents the fold increase (+) or decrease (−) of expression relative to corresponding vehicle-treated controls. (E) HepG2 cells were incubated in culture media with or without cycloheximide (cyclohex). For the Northern blot analysis from cycloheximide-treated HepG2 cells, tissue cultures were incubated in cell culture media with 10% lipid-deficient serum with or without 50 μg/mL cycloheximide. T0314407 was added after 30 min of cycloheximide treatment, cells were harvested 18 h later, and total RNA was extracted as described.

[6] = HepG2, presence and absence of 50 μg/ml cyclohexamide, 18 hours

SMILES | expression of SREBP-2 ([1]; HepG2, 18 hours) | expression of negative control GAPDH ([1]; HepG2, 18 hours) | expression of SREBP-1 mRNA [1, 6] | expression of fatty acid synthase [1, 6] | expression of GAPDH [2] | expression of SREBP-2 [2] | SREBP-1 expression ([2]; all three cell lines) | competition with binding of radiolabeled T0314407 to LXRα [3] | EC50 [4] [nM] | agonist-mediated increase in levels of FAS mRNA [5] | induction of SREBP-1 gene expression [5]
C[C@H](CC[C@@H]1OC1(C)C)[C@H]1CC[C@H]2[C@@H]3CC=C4C[C@@H](O)CC[C@]4(C)[C@H]3CC[C@]12C [24,25-epoxycholesterol, 24(S),25-epoxycholesterol] | not affected | not affected | stimulated; also recorded: activates | stimulated | not significantly enhanced | not significantly enhanced | activates | competed | 300 | – | –
CN(c1ccc(C(O)(C(F)(F)F)C(F)(F)F)cc1)S(=O)(=O)c1ccccc1 [T0314407, N-methyl-N-[4-(2,2,2-trifluoro-1-hydroxy-1-trifluoromethyl-ethyl)-phenyl]-benzenesulfonamide] | – | – | – | – | – | – | – | – | – | arrested | persisted
